Data from paper PMC9950073, “Alleviation of arthritis through prevention of neutrophil extracellular traps by an orally available inhibitor of protein arginine deiminase 4” (Scientific Reports, 2023).
Converted amounts (≈) assume the structure as drawn.

Key:
CYP3A4 = molecular target: T1, CYP3A4 (Homo sapiens, UniProt P08684); assay: CYP inhibition in human liver microsome, CYP3A4; type: in vitro ADME
T1 construct: from tissue; host or cells: human liver microsomes
Description: CYP inhibition: Human liver microsome (0.1–0.5 mg/mL for various CYPs) and appropriate probe substrates (2.5–20 µM) were incubated in potassium phosphate buffer with or without JBI-589 for 5 min at 37 °C. The reaction was initiated by addition of NADPH (1 mM), incubated at 37 °C for 10 min and quenched (0.5% Formic acid in internal standard (IS) containing ACN). Samples were then centrifuged and taken for LC–MS/MS analysis. Percent change in metabolite formation for each substrate under above conditions using formula: Percent inhibition = [1 − (test area ratio/control area ratio)] *100.

Solubility = type: physicochemical
Source text: Supplement 41598_2023_30246_MOESM1_ESM.docx, table 2: Supplementary Table S2. In vitro ADME parameters of JBI-589 | column: 90

[1] = Plasma protein binding (equilibrium dialysis); type: in vitro ADME; details: pH 7.4, plasma across species, read-out: PPB (% unbound)
Description: Plasma protein binding: 10 µM of JBI-589 was mixed with plasma from different species (in sodium phosphate buffer, pH 7.4) was added to the plasma side of the 96-well micro-equilibrium dialysis device and sodium phosphate buffer (pH 7.4) was added to the other half of the device. The device was incubated at 37 ± 1 °C for 14 h with constant shaking. After the incubation time, plasma and buffer were collected from either side, quenched (0.5% formic acid in internal standard (IS) containing ACN), centrifuged and supernatant was used for LC–MS/MS analysis. Percent of unbound compound was calculated as follows: Percent unbound: [peak area ratio in buffer side/dilution factor]/peak area ratio in plasma side × 100; Peak area ratio: compound peak area/internal standard peak area.

human neutrophils = assay: In vitro NET assay, human neutrophils; type: cell-based; details: 10 μM, ionomycin 4 µM 4 h
Source text: All blood samples from healthy donors who participated in this study were obtained after informed consent in accordance with relevant guidelines and regulations given by the ACE Independent ethics committee for Jubilant Biosys Ltd and Office of Clinical Investigations at Boston Children’s Hospital. The ACE Independent ethics committee, Bangalore, approved the use of human whole blood/PBMC/Enriched Subset in Jubilant Biosys Ltd investigations, Drug Controller General of India (DCGI) Reg No. ECR/141/Indt/KA/2013. Briefly, 10 mL K2EDTA vacutainers were used to collect fresh blood from healthy donors (BD vacutainer, Catalog No: BD 367525). A total of 50 ml of blood was taken from a single, healthy human donor. Neutrophils were isolated from human blood using the EasySep Direct Human Neutrophil Isolation Kit, according to the manufacturer's instructions (Stem Cell Technology, Catalog No: 19666). […]
Mouse or human neutrophils were resuspended in HEPES-supplemented phenol red-free RPMI1640 medium and 1.5 × 10^4 cells were seeded per well in a 96-well plate. […] Images were obtained with a Zeiss Axiovert 200 M wide-field fluorescence microscope (Zeiss, Oberkochen, Germany) with the Zeiss AxioVision software. The percentages of H4Cit positive neutrophils and neutrophil extracellular traps (NETs) were calculated by quantifying more than 200 randomly selected cells. […]

mouse neutrophils = assay: NET formation assay on neutrophils isolated from orally dosed mice; type: in vivo; details: 50 mg/kg orally for seven consecutive days
Description: To determine the effects of JBI-589 on NET formation, an in vitro NET assay was performed. In mouse neutrophils, ionomycin stimulation induced more than 90% of H4Cit-positivity and NET formation in approximately 15% of neutrophils. […] To evaluate the in vivo effects, JBI-589 at 50 mg/kg or vehicle (water) was orally administered twice daily for seven consecutive days. Four hours after the last administration, mouse neutrophils were isolated, and then a NET formation assay was performed.
Mouse peripheral blood was collected by retro-orbital puncture in ethylenediaminetetraacetic acid (EDTA) anticoagulated buffer supplemented with 1% endotoxin-free BSA in sterile PBS. Neutrophils were isolated by Percoll gradient centrifugation as described previously. The purity of neutrophils was more than 90% as confirmed by the Wright-Giemsa stain.
Mouse or human neutrophils were resuspended in HEPES-supplemented phenol red-free RPMI1640 medium and 1.5 × 10^4 cells were seeded per well in a 96-well plate. After incubating for 20 min at 37 °C and 5% CO2, the cells were stimulated with vehicle control or ionomycin (Sigma, Catalog No: I24222) (4 µM) for 4 h. Neutrophils were fixed with 4% paraformaldehyde (PFA), washed and permeabilized (0.1% Triton X-100, 0.1% sodium citrate) for 10 min at 4 °C. Subsequently, neutrophils were incubated with blocking buffer (2.5% BSA, 0.5% Tween-20 in 1 × PBS) at room temperature for an hour followed by overnight incubation with the primary antibody against citrullinated histone H4 (H4Cit, 1:250, catalog number: 07-596, Millipore, Burlington, MA). After washing 3 times with PBS, neutrophils were incubated with Hoechst 33342 (1:10,000, catalog number: H3570, Invitrogen). Images were obtained with a Zeiss Axiovert 200 M wide-field fluorescence microscope (Zeiss, Oberkochen, Germany) with the Zeiss AxioVision software. The percentages of H4Cit positive neutrophils and neutrophil extracellular traps (NETs) were calculated by quantifying more than 200 randomly selected cells. […]

[2] = neutrophils isolated 4 h after last administration, ionomycin 4 µM

T1 sequence (P08684 whole entry): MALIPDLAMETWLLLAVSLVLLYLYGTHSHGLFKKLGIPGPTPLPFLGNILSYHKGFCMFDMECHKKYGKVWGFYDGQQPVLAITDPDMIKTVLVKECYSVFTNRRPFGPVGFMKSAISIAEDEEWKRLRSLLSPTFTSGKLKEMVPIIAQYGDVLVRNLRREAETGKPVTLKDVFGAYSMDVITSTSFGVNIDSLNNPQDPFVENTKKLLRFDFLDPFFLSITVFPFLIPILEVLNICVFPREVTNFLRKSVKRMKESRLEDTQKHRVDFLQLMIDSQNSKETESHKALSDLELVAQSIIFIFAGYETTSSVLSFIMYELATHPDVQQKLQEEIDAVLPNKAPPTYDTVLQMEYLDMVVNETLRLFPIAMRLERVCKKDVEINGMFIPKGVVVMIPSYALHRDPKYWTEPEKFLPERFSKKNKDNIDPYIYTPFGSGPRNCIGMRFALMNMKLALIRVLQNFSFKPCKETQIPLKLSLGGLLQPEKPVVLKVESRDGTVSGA

inhibition at 10 min, 10 µM (CYP3A4; human liver microsomes, 10 µM, human liver microsome, read-out: CYP3A4 inhibition (% inh @10 µM)): < 50%
IC50 (CYP3A4; predicted from % inhibition, text says major CYPs tested): > 10 µM
solubility (Solubility): 90 µM (≈ 43.3 µg/mL)
fraction unbound at 14 h, 10 µM [1]: 0.05 to 0.1
SMILES: Cc1c(-c2cc3ccccc3n2Cc2ccc(F)cc2)nc2cc(C(=O)N3CCC[C@@H](N)C3)ccn12 [JBI-589, (R)-(3-aminopiperidin-1-yl)(2-(1-(4-fluorobenzyl)-1H-indol-2-yl)-3-methylimidazo[1,2-a]pyridin-7-yl)methanone]
H4Cit positivity (human neutrophils): the same effect was confirmed
NET formation (human neutrophils): the same effect was confirmed
H4Cit positivity compared with vehicle (mouse neutrophils; [2]): reduced both H4Cit positivity and NET formation significantly
NET formation compared with vehicle (mouse neutrophils; [2]): reduced both H4Cit positivity and NET formation significantly
percentage of H4Cit positive cells (mouse neutrophils; vehicle 88%, p = 0.01): 83%
